EC50 data for 35 compounds are collected here from patent US8802663B2, “Pyrazole oxadiazole derivatives as S1P1 agonists” (Merck Serono SA, priority 2009, dated 2014).

Molecules are shown by their SMILES.

In the assay the target is S1P1 (Homo sapiens (Human), UniProt P21453). In words: 35S-GTPγS binding, membranes from CHO cells expressing S1P1. The following applies: CHO cell membranes. The format is biochemical. On the procedure: Cells were suspended in 50 mM TRIS, pH 7.4, 2 mM EDTA, 250 mM Sucrose (buffer A) and 1× Complete protease inhibitor cocktail (Roche), and disrupted at 4° C. by N2 decompression using a cell disruption bomb (Parr Instrument). Following centrifugation at 1000 RPM for 10 min at 4° C., the supernatant was suspended in buffer A and centrifuged again at 19000 RPM for 60 min at 4° C. The pellet was then suspended in 10 mM HEPES, pH 7.4, 1 mM EDTA, 250 mM Sucrose (Buffer B), and 1× Complete EDTA-free protease inhibitor cocktail and homogenized using a potter. Membranes were flash frozen in liquid N2 and stored at −80° C. [33P]sphingosine 1-phosphate (3000 Ci/mmol; American Radiolabeled Chemicals, Inc.) was added to test compounds in DMSO. […] Specific binding was calculated by subtracting remaining radioactivity in the presence of 1000-fold excess of unlabeled SIP. Binding data were analyzed using the GraphPad Prism program.
After 60 min incubation at 30° C. on a shaker, plates were centrifuged for 10 min at 2000 RPM. […] Triplicate samples were averaged and expressed as % response relative to S1P activation in absence of compound (n=2).
In general terms: Binding of GTPγS marks nucleotide exchange on a G protein.

S1P1, sequence (P21453 whole entry, species assumed): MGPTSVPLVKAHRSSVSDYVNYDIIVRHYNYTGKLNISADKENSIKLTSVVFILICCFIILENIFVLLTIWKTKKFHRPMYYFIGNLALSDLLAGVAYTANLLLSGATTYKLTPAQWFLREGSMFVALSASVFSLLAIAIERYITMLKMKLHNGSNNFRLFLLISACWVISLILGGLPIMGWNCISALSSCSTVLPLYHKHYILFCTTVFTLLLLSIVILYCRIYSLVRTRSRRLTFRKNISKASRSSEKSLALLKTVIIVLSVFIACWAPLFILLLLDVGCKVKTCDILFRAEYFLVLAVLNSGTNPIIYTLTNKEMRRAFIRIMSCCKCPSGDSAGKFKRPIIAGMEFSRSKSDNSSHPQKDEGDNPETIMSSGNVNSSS

In the case of `Fc1ccc(F)c(-c2noc(-c3cnn(-c4ccccc4F)c3-c3ccccc3)n2)c1` [Example 2, 3-(2,5-difluorophenyl)-5-[1-(2-fluorophenyl)-5-phenyl-1H-pyrazol-4-yl]-1,2,4-oxadiazole], the response was half-maximal at 24 nM (EC50).

Consider `COc1ccccc1-n1ncc(-c2nc(-c3cc(F)ccc3F)no2)c1-c1ccccc1` [Example 4, 3-(2,5-difluorophenyl)-5-[1-(2-methoxyphenyl)-5-phenyl-1H-pyrazol-4-yl]-1,2,4-oxadiazole], for which the EC50 was 284 nM.

`CC(C)Cn1cc(-c2nc(-c3cc(F)ccc3F)no2)c(-c2ccccc2)n1` [Example 7, 3-(2,5-difluorophenyl)-5-(1-isobutyl-3-phenyl-1H-pyrazol-4-yl)-1,2,4-oxadiazole]: the midpoint of the response, the EC50, lay at 288 nM.

The compound `CC(C)n1ncc(-c2nc(-c3cc(F)ccc3F)no2)c1-c1ccccc1` [Example 10, 3-(2,5-difluorophenyl)-5-(1-isopropyl-5-phenyl-1H-pyrazol-4-yl)-1,2,4-oxadiazole] yielded an EC50 of 172 nM.

In turn, `CCCn1ncc(-c2nc(-c3cc(F)ccc3F)no2)c1-c1ccccc1` [Example 14, 3-(2,5-difluorophenyl)-5-(5-phenyl-1-propyl-1H-pyrazol-4-yl)-1,2,4-oxadiazole] displayed an EC50 of 201 nM.

As to `Cc1c(-c2nc(-c3cc(F)ccc3F)no2)cnn1-c1ccccc1` [Example 15, 3-(2,5-difluorophenyl)-5-(5-methyl-1-phenyl-1H-pyrazol-4-yl)-1,2,4-oxadiazole], the EC50 worked out at 192 nM. The EC50 values of the last two compounds are within 1.5-fold of each other.

For `Cn1cc(-c2nc(-c3cc(F)ccc3F)no2)c(C(C)(C)C)n1` [Example 16, 5-(3-tert-butyl-1-methyl-1H-pyrazol-4-yl)-3-(2,5-difluorophenyl)-1,2,4-oxadiazole], a half-maximal response (EC50) required 901 nM.

Turning to `COCc1c(-c2nc(-c3cc(F)ccc3F)no2)cnn1CC(C)C` [Example 17, 3-(2,5-difluorophenyl)-5-(1-isobutyl-5-(methoxymethyl)-1H-pyrazol-4-yl)-1,2,4-oxadiazole], a half-maximal response (EC50) required 648 nM. The EC50 values of the last two compounds are within 1.5-fold of each other.

In turn, `CCc1c(-c2nc(-c3cc(F)ccc3F)no2)cnn1CC(C)C` [Example 18, 3-(2,5-difluorophenyl)-5-(5-ethyl-1-isobutyl-1H-pyrazol-4-yl)-1,2,4-oxadiazole] displayed an EC50 of 776 nM.

In the case of `CCOC(=O)Cn1ncc(-c2nc(-c3cc(F)ccc3F)no2)c1-c1ccncc1` [Example 20, ethyl {4-[3-(2,5-difluorophenyl)-1,2,4-oxadiazol-5-yl]-5-pyridin-4-yl-1H-pyrazol-1-yl}acetate], the response was half-maximal at 172 nM (EC50).

In turn, `CCCc1c(-c2nc(-c3cc(F)ccc3F)no2)cnn1-c1ccccc1` [Example 21, 3-(2,5-difluorophenyl)-5-(1-phenyl-5-propyl-1H-pyrazol-4-yl)-1,2,4-oxadiazole] registered an EC50 of 81 nM.

In the case of `CCCc1c(-c2nc(-c3cccc(S(C)(=O)=O)c3)no2)cnn1-c1ccccc1` [Example 22], it took 370 nM to reach a half-maximal effect (EC50).

`Fc1ccc(F)c(-c2noc(-c3cnn(CC(F)(F)F)c3-c3ccncc3)n2)c1` [Example 24, 3-(2,5-difluorophenyl)-5-(5-(pyridin-4-yl)-1-(2,2,2-trifluoroethyl)-1H-pyrazol-4-yl)-1,2,4-oxadiazole]: the EC50 is 292 nM.

`Fc1ccc(F)c(-c2noc(-c3cnn(Cc4ccccc4)c3-c3ccncc3)n2)c1` [Example 25, 4-{1-benzyl-4-[3-(2,5-difluorophenyl)-1,2,4-oxadiazol-5-yl]-1H-pyrazol-5-yl}pyridine] came in with an EC50 of 148 nM.

In the case of `CS(=O)(=O)c1cccc(-c2noc(-c3cnn(C4CCCCC4)c3-c3ccncc3)n2)c1` [Example 26, 4-(1-cyclohexyl-4-{3-[3-(methylsulfonyl)phenyl]-1,2,4-oxadiazol-5-yl}-1H-pyrazol-5-yl)pyridine], the EC50 amounted to 29 nM. Against the preceding compound, the EC50 is about 5.1-fold lower.

For the compound `COCc1c(-c2nc(-c3cc(F)ccc3F)no2)cnn1C1CCCCC1` [Example 27, 5-[1-cyclohexyl-5-(methoxymethyl)-1H-pyrazol-4-yl]-3-(2,5-difluorophenyl)-1,2,4-oxadiazole], the EC50 was 27 nM.

The compound `OCc1ccc(-c2noc(-c3cnn(C4CCCCC4)c3-c3ccncc3)n2)cc1` [Example 29, {4-[5(1-cyclohexyl-5-pyridin-4-yl-1H-pyrazol-4-yl)-1,2,4-oxadiazol-3-yl]phenyl}methanol] had an EC50 of 24 nM. This EC50 and that of the compound before are within 1.5-fold of each other.

`Fc1ccc(F)c(-c2noc(-c3cnn(C4CCCC4)c3-c3ccncc3)n2)c1` [Example 30, 4-{1-cyclopentyl-4-[3-(2,5-difluorophenyl)-1,2,4-oxadiazol-5-yl]-1H-pyrazol-5-yl}Pyridine] registered an EC50 of 20 nM.

For the compound `CC(C)Cn1ncc(-c2nc(-c3cc(F)ccc3F)no2)c1C1CCOCC1` [Example 32, 3-(2,5-difluorophenyl)-5-[1-isobutyl-5-(tetrahydro-2H-pyran-4-yl)-1H-pyrazol-4-yl]-1,2,4-oxadiazole], the EC50 was 180 nM.

`Fc1ccc(F)c(-c2noc(-c3cnn(C4CCOCC4)c3-c3ccccc3)n2)c1` [Example 33, 3-(2,5-difluorophenyl)-5-[5-phenyl-1-(tetrahydro-2H-pyran-4-yl)-1H-pyrazol-4-yl]-1,2,4-oxadiazole] came in with an EC50 of 216 nM.

With `Fc1ccc(F)c(-c2noc(-c3cnn(CCNC4CC4)c3-c3ccccc3)n2)c1` [Example 35, N-(2-{4-[3-(2,5-difluorophenyl)-1,2,4-oxadiazol-5-yl]-5-phenyl-1H-pyrazol-1-yl}ethyl)cyclopropanamine], the EC50 turned out to be 931 nM.

Consider `CC(C)Cn1ncc(-c2nc(-c3ccc4c(c3)CNCC4)no2)c1-c1ccncc1` [Example 36, 7-[5-(1-isobutyl-5-pyridin-4-yl-1H-pyrazol-4-yl)-1,2,4-oxadiazol-3-yl]-1,2,3,4-tetrahydroisoquinoline], for which it took 114 nM to reach a half-maximal effect (EC50). This EC50 is about 8.2-fold lower than that of the compound before.

In the case of `c1cc(-c2c(-c3nc(-c4ccc5c(c4)CNCC5)no3)cnn2C2CCCCC2)ccn1` [Example 39, 7-[5-(1-cyclohexyl-5-pyridin-4-yl-1H-pyrazol-4-yl)-1,2,4-oxadiazol-3-yl]-1,2,3,4-tetrahydroisoquinoline], the midpoint of the response, the EC50, lay at 16 nM.

`CC(C)Cn1ncc(-c2nc(-c3cccc(S(C)(=O)=O)c3)no2)c1-c1ccncc1` [Example 43, 4-(1-isobutyl-4-{3-[3-(methylsulfonyl)phenyl]-1,2,4-oxadiazol-5-yl}-1H-pyrazol-5-yl)pyridine]: the EC50 was 292 nM. Compared with the last compound, the EC50 is about 18-fold higher.

Compound `Fc1ccc(F)c(-c2noc(-c3cnn(C4CCC4)c3-c3ccncc3)n2)c1` [Example 44, 4-{1-cyclobutyl-4-[3-(2,5-difluorophenyl)-1,2,4-oxadiazol-5-yl]-1H-pyrazol-5-yl}pyridine] displayed a 50% effective concentration (EC50) of 402 nM.

In turn, `OC1CCN(Cc2ccc(-c3noc(-c4cnn(C5CCCCC5)c4-c4ccncc4)n3)cc2)C1` (centres unmarked) [Example 45, 1-{4-[5-(1-cyclohexyl-5-pyridin-4-yl-1H-pyrazol-4-yl)-1,2,4-oxadiazol-3-yl]benzyl}pyrrolidin-3-ol] returned an EC50 of 10 nM.

With `C[C@H]1CCCC[C@@H]1n1ncc(-c2nc(-c3cc(F)ccc3F)no2)c1-c1ccccc1` [Example 46, 3-(2,5-difluorophenyl)-5-{1-[(1S,2S)-2-methylcyclohexyl]-5-phenyl-1H-pyrazol-4-yl}-1,2,4-oxadiazole], a half-maximal effect (EC50) was put at 26 nM.

For `Cc1ccccc1-c1c(-c2nc(-c3cc(F)ccc3F)no2)cnn1C1CCCCC1` [Example 48, 5-[1-cyclohexyl-5-(2-methylphenyl)-1H-pyrazol-4-yl]-3-(2,5-difluorophenyl)-1,2,4-oxadiazole], the concentration for a half-maximal effect (EC50) worked out at 47 nM.

Consider `COCc1c(-c2nc(-c3ccc(CO)cc3)no2)cnn1C1CCCCC1` [Example 49, (4-{5-[1-cyclohexyl-5-(methoxymethyl)-1H-pyrazol-4-yl]-1,2,4-oxadiazol-3-yl}phenyl)methanol], for which it took 229 nM to reach a half-maximal effect (EC50).

Take `CC(C)Cn1ncc(-c2nc(-c3cccc(C(F)(F)F)c3)no2)c1C1CCOCC1` [Example 50, 5-[1-isobutyl-5-(tetrahydro-2H-pyran-4-yl)-1H-pyrazol-4-yl]-3-[3-(trifluoromethyl)phenyl]-1,2,4-oxadiazole]: the concentration giving a half-maximal response (EC50) was 211 nM.

`c1ccc(-c2nc(-c3cnn(C4CCCCC4)c3-c3ccccc3)no2)cc1` [Example 51, 3-(1-cyclohexyl-5-phenyl-1H-pyrazol-4-yl)-5-phenyl-1,2,4-oxadiazole]: the EC50 came to 310 nM.

Compound `Fc1ccccc1-c1nc(-c2cnn(C3CCCCC3)c2-c2ccccc2)no1` [Example 52, 3-(1-cyclohexyl-5-phenyl-1H-pyrazol-4-yl)-5-(2-fluorophenyl)-1,2,4-oxadiazole] returned an EC50 of 313 nM.

In turn, `c1ccc(-c2c(-c3noc(-c4cccnc4)n3)cnn2C2CCCCC2)cc1` [Example 53, 3-[3-(1-cyclohexyl-5-phenyl-1H-pyrazol-4-yl)-1,2,4-oxadiazol-5-yl]pyridine] came in with an EC50 of 164 nM.

Compound `CC(C)Cn1ncc(-c2nc(-c3ccc(CO)cc3)no2)c1-c1ccncc1` [Example 54, {4-[5-(1-isobutyl-5-pyridin-4-yl-1H-pyrazol-4-yl)-1,2,4-oxadiazol-3-yl]phenyl}methanol] came in with an EC50 of 189 nM.

Compound `CNCc1ccc(-c2noc(-c3cnn(C4CCCCC4)c3-c3ccncc3)n2)cc1` [Example 55, 1-{4-[5-(1-cyclohexyl-5-pyridin-4-yl-1H-pyrazol-4-yl)-1,2,4-oxadiazol-3-yl]phenyl}-N-methylmethanamine] returned an EC50 of 24 nM.

A word on the EC50: it is the concentration giving half of the maximal effect. Read a low EC50 as higher potency in that assay.
